Data taken from the NIST ThermoML archive (doi:10.1021/acs.jced.8b00229).
± gives the expanded uncertainty stated by the source.

Conditions: Liquid, Vibrating tube method

FCC(F)(F)F [1,1,1,2-tetrafluoroethane]
Conditions	mass density [kg/m3]
283.55 K, 40000 kPa	1376.3 ± 2.1
283.55 K, 60000 kPa	1413.1 ± 2.3
283.55 K, 80000 kPa	1443.2 ± 2.5
283.56 K, 20000 kPa	1328.7 ± 2
283.57 K, 5000 kPa	1279.4 ± 2
283.57 K, 10000 kPa	1297.9 ± 2
303.39 K, 1000 kPa	1188.5 ± 2
303.39 K, 5000 kPa	1212.5 ± 2
303.39 K, 10000 kPa	1237 ± 2
303.39 K, 20000 kPa	1275.9 ± 2
303.39 K, 40000 kPa	1332.1 ± 2.1
303.39 K, 80000 kPa	1407.4 ± 2.4
303.4 K, 60000 kPa	1373.9 ± 2.2
322.89 K, 3000 kPa	1120.9 ± 2.1
322.91 K, 5000 kPa	1137.8 ± 2.1
322.91 K, 10000 kPa	1172 ± 2
322.93 K, 20000 kPa	1221.5 ± 2
322.93 K, 40000 kPa	1288.4 ± 2.1
322.93 K, 60000 kPa	1335.8 ± 2.2
322.94 K, 80000 kPa	1372.8 ± 2.4
342.75 K, 3000 kPa	1017.4 ± 2.2
342.75 K, 5000 kPa	1047.5 ± 2.1
342.76 K, 10000 kPa	1098.8 ± 2.1
342.77 K, 20000 kPa	1164.1 ± 2
342.77 K, 40000 kPa	1243.6 ± 2.1
342.78 K, 60000 kPa	1297.3 ± 2.1
342.78 K, 80000 kPa	1338.2 ± 2.3
362.57 K, 5000 kPa	924.9 ± 2.3
362.57 K, 10000 kPa	1015.4 ± 2.1
362.58 K, 20000 kPa	1103.4 ± 2
362.59 K, 40000 kPa	1198.4 ± 2.1
362.59 K, 60000 kPa	1258.8 ± 2.1
362.59 K, 80000 kPa	1303.8 ± 2.3
